# Results taken from US20220009920A1 (GB005, Inc., priority 2020, published 2022).
# Assays:
# Assay in all cases: Large panel kinase profiling
# Type in all cases: biochemical
# Settings in all cases: 1 μM test article, 1 mM ATP
# MAPKAPK5/MK5 = target: T1, MAPKAPK5/MK5 (Homo sapiens, UniProt Q8IW41)
# T1 construct: AssayQuant Technologies, Inc. (service provider)
# T1 sequence (Q8IW41 1-473): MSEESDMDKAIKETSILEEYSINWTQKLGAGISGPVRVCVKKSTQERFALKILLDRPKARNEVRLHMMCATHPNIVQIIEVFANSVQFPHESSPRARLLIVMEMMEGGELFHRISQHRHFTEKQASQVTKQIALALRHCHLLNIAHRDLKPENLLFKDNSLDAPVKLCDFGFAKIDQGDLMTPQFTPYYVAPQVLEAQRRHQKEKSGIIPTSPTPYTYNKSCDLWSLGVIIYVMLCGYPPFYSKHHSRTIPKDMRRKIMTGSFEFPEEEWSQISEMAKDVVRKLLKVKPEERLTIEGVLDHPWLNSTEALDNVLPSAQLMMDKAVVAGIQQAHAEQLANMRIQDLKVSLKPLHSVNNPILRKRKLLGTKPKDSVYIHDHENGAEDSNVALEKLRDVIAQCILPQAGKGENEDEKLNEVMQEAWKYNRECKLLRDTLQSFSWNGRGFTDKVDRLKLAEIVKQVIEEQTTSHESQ
# Summary of the method: (§1)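 Continuous-read kinase assay: chelation-sensor peptide, 1 mM ATP, compound at 1 μM. Plates kept at 30° C.; fluorescence sampled at 1-min intervals (360/485 nm).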
# GRK4 = target: T2, GRK4 (Homo sapiens, UniProt P32298)
# T2 construct: AssayQuant Technologies, Inc. (service provider)
# Summary of the method: as §1
# FES = FES (Homo sapiens, UniProt P07332)
# Summary of the method: as §1
# ITK = target: T3, ITK (Homo sapiens, UniProt Q08881)
# T3 sequence (Q08881 1-620): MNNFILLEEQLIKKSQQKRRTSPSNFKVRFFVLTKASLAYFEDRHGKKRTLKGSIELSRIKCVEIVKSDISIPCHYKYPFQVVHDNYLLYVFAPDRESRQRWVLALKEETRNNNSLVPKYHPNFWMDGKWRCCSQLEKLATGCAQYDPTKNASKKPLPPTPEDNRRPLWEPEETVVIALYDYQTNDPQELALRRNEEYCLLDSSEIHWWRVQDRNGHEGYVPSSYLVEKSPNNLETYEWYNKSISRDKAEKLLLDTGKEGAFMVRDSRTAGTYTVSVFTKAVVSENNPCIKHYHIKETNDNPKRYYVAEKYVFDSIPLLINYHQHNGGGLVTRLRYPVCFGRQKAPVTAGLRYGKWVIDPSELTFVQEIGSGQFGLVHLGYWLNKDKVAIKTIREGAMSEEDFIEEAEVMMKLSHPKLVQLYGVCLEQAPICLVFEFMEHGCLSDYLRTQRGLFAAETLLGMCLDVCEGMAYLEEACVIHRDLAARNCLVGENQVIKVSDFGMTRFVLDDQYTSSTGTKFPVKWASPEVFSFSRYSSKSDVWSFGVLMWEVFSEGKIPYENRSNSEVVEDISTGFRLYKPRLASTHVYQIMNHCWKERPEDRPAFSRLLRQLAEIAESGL
# Summary of the method: as §1
# TEC = target: T4, TEC (Homo sapiens, UniProt P42680)
# T4 construct: AssayQuant Technologies, Inc. (contract laboratory that ran the panel)
# T4 sequence (P42680 1-631): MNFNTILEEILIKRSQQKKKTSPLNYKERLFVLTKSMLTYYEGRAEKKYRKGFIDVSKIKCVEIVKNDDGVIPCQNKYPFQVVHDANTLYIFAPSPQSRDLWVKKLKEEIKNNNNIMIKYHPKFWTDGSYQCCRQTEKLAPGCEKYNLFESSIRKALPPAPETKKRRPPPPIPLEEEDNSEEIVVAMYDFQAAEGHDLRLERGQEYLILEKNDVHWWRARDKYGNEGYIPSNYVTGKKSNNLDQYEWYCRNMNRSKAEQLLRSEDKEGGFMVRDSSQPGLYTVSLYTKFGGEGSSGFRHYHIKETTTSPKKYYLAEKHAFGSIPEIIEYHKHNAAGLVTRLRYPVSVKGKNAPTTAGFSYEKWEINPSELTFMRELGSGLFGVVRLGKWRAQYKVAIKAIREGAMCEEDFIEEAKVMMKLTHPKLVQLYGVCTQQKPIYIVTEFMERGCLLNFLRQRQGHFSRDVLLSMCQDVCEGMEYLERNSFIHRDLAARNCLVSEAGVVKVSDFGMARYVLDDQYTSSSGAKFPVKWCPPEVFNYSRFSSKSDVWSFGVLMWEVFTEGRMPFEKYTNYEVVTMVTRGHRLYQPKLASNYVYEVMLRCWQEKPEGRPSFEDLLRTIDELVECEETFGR
# Summary of the method: as §1
# PIM3 = PIM3 (Homo sapiens, UniProt Q86V86)
# Summary of the method: as §1
# ROCK2 = ROCK2 (Homo sapiens, UniProt O75116)
# Summary of the method: as §1
# MELK = target: T5, MELK (Homo sapiens, UniProt Q14680)
# T5 construct: AssayQuant Technologies, Inc. (assay service)
# Summary of the method: as §1
# ROCK2, sequence (O75116 whole entry, species assumed): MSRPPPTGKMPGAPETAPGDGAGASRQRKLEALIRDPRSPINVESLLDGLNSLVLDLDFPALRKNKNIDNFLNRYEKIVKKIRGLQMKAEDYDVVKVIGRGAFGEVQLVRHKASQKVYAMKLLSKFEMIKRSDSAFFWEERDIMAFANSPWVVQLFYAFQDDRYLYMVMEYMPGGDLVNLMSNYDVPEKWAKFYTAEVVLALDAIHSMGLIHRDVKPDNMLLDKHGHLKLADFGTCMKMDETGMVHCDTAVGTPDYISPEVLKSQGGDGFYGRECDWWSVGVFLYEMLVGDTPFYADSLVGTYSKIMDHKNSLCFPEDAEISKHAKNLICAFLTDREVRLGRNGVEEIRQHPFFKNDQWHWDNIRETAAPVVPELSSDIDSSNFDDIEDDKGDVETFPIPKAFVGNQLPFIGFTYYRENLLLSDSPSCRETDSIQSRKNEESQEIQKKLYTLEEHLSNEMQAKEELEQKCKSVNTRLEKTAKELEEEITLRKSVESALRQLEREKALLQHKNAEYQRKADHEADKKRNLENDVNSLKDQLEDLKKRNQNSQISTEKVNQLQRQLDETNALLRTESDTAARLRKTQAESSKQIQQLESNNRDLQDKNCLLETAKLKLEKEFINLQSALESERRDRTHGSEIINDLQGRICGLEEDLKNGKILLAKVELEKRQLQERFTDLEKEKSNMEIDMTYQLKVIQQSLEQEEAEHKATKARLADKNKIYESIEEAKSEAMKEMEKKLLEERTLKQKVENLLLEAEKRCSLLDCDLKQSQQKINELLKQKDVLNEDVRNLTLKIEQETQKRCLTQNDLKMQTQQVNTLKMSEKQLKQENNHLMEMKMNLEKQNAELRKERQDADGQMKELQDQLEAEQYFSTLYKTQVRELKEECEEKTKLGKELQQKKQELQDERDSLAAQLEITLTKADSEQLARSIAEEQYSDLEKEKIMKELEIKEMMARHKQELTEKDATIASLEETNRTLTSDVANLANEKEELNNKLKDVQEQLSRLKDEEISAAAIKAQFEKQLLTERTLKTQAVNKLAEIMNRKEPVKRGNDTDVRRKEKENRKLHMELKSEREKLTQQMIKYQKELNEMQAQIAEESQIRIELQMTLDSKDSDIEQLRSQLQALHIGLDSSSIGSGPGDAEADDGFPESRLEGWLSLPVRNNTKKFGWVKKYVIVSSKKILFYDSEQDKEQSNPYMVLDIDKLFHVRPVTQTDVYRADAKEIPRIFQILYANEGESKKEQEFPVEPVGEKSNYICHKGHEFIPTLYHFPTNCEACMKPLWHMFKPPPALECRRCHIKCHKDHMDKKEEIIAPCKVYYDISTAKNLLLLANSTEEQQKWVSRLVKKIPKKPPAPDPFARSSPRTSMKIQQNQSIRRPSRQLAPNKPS
# T5 sequence (Q14680 whole entry, species assumed): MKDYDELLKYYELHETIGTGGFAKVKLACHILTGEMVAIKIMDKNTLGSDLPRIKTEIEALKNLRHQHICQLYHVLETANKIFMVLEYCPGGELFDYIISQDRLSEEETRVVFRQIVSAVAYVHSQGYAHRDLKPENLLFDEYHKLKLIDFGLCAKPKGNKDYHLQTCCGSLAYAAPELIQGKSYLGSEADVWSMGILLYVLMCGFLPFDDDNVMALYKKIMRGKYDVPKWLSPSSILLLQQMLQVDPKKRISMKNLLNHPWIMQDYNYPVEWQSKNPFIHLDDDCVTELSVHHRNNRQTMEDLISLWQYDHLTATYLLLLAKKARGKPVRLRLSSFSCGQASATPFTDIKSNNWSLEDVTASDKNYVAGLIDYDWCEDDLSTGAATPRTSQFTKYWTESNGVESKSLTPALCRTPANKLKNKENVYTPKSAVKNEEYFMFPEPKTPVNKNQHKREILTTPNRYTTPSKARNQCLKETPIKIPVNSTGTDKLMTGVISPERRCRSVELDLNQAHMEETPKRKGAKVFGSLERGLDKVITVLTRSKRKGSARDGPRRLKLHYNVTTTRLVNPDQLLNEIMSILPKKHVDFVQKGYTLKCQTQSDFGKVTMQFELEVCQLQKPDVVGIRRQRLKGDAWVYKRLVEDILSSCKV
# FES, sequence (P07332 whole entry, species assumed): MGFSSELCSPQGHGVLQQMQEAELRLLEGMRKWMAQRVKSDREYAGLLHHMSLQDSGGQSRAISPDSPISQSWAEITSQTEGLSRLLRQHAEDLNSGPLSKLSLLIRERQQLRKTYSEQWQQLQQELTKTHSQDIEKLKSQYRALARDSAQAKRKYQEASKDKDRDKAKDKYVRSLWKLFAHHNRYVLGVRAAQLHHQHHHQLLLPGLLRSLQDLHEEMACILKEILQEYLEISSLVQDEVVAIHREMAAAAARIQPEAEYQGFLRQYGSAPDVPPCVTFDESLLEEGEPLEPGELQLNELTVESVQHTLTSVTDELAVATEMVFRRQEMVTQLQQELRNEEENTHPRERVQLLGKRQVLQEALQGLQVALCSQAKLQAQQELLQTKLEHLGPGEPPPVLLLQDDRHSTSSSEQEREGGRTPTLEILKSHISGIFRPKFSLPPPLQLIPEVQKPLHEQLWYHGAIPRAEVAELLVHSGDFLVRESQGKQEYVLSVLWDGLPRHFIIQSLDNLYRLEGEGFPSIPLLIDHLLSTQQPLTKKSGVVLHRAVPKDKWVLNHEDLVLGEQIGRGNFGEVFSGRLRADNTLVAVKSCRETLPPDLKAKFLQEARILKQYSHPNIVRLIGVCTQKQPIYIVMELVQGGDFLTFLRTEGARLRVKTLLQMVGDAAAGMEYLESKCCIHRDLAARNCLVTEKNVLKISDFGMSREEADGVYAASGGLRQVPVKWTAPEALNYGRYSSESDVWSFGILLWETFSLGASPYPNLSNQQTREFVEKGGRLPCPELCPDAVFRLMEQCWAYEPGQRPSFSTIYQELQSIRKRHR
# T2 sequence (P32298 whole entry, species assumed): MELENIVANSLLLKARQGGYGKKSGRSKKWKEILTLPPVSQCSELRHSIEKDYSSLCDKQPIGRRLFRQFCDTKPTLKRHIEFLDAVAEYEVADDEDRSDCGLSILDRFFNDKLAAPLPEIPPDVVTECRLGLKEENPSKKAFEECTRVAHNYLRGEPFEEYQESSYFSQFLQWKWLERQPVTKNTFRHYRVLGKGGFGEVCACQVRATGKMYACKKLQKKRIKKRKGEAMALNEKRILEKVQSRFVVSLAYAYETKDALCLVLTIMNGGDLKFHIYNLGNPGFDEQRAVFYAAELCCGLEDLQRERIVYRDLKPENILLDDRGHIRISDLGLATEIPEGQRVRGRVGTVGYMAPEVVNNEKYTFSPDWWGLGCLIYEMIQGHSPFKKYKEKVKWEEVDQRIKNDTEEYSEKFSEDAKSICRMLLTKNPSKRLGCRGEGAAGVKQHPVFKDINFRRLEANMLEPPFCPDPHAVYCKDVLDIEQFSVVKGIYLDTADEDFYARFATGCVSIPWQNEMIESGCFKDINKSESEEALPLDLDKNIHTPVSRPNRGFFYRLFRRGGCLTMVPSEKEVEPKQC
SMILES,inhibition at 1 µM (MAPKAPK5/MK5) [%],inhibition at 1 µM (GRK4) [%],inhibition at 1 µM (FES) [%],inhibition at 1 µM (ITK) [%],inhibition at 1 µM (TEC) [%],inhibition at 1 µM (PIM3) [%],inhibition at 1 µM (ROCK2) [%],inhibition at 1 µM (MELK) [%]
"C=CC(=O)N1CCCC(c2c(F)cc(C(N)=O)c3[nH]c4c(c23)CCCCC4)C1 (single isomer, unassigned) [Compound 5-6]",3.7,3.4,24.5,44.8,80.3,-14.1,-28.3,-27.6
"C=CC(=O)N1CCC[C@@H](c2c(F)cc(C(N)=O)c3[nH]c4c(c23)CC2(CC4)CC2)C1 [Compound 6-2, (S)-5-(1-acryloylpiperidin-3-yl)-6-fluoro-1,2,4,9-tetrahydrospiro[carbazole-3,1′-cyclopropane]-8-carboxamide]",8.6,-53,-33,29.2,84.5,-56.4,0.8,-14.5
"C=CC(=O)N1CCC[C@@H](c2c(F)cc(C(N)=O)c3[nH]c4c(c23)CCC4)C1 [Compound 10-2, (S)-8-(1-acryloylpiperidin-3-yl)-7-fluoro-1,2,3,4-tetrahydrocyclo-penta[b]indole-5-carboxamide]",-12.6,-36.1,-31.2,12.2,76.1,-16.8,21.2,11.1
